Reference: ChEMBL document CHEMBL4507272 (2021)

Assays:
Details in all cases: Compound concentration 1000.0 nM
[1] = target: BMP-2-inducible protein kinase (Homo sapiens) (UniProt Q9NSY1)
[2] = target: Dual specificity protein kinase CLK1 (Homo sapiens) (UniProt P49759)
[3] = target: Macrophage colony-stimulating factor 1 receptor (Homo sapiens) (UniProt P07333)
[4] = target: Death-associated protein kinase 1 (Homo sapiens) (UniProt P53355)
[5] = target: Eukaryotic translation initiation factor 2-alpha kinase 1 (Homo sapiens) (UniProt Q9BQI3)
[6] = target: Ephrin type-B receptor 1 (Homo sapiens) (UniProt P54762)
[7] = system: Receptor-type tyrosine-protein kinase FLT3 (Homo sapiens), P36888 [UNDEFINED MUTATION]
[8] = target: Tyrosine-protein kinase HCK (Homo sapiens) (UniProt P08631)
[9] = target: Inhibitor of nuclear factor kappa-B kinase subunit beta (Homo sapiens) (UniProt O14920)
[10] = system: Hepatocyte growth factor receptor (Homo sapiens), P08581 [M1250T]
[11] = target: Myosin-IIIa (Homo sapiens) (UniProt Q8NEV4)
[12] = target: Serine/threonine-protein kinase Nek9 (Homo sapiens) (UniProt Q8TD19)
[13] = target: Platelet-derived growth factor receptor alpha (Homo sapiens) (UniProt P16234)
[14] = target: Phosphatidylinositol 5-phosphate 4-kinase type-2 beta (Homo sapiens) (UniProt P78356)
[15] = target: TRAF2 and NCK-interacting protein kinase (Homo sapiens) (UniProt Q9UKE5)

Measured: residual activity

Sequence of TRAF2 and NCK-interacting protein kinase (Homo sapiens) (Q9UKE5 whole entry, looked up): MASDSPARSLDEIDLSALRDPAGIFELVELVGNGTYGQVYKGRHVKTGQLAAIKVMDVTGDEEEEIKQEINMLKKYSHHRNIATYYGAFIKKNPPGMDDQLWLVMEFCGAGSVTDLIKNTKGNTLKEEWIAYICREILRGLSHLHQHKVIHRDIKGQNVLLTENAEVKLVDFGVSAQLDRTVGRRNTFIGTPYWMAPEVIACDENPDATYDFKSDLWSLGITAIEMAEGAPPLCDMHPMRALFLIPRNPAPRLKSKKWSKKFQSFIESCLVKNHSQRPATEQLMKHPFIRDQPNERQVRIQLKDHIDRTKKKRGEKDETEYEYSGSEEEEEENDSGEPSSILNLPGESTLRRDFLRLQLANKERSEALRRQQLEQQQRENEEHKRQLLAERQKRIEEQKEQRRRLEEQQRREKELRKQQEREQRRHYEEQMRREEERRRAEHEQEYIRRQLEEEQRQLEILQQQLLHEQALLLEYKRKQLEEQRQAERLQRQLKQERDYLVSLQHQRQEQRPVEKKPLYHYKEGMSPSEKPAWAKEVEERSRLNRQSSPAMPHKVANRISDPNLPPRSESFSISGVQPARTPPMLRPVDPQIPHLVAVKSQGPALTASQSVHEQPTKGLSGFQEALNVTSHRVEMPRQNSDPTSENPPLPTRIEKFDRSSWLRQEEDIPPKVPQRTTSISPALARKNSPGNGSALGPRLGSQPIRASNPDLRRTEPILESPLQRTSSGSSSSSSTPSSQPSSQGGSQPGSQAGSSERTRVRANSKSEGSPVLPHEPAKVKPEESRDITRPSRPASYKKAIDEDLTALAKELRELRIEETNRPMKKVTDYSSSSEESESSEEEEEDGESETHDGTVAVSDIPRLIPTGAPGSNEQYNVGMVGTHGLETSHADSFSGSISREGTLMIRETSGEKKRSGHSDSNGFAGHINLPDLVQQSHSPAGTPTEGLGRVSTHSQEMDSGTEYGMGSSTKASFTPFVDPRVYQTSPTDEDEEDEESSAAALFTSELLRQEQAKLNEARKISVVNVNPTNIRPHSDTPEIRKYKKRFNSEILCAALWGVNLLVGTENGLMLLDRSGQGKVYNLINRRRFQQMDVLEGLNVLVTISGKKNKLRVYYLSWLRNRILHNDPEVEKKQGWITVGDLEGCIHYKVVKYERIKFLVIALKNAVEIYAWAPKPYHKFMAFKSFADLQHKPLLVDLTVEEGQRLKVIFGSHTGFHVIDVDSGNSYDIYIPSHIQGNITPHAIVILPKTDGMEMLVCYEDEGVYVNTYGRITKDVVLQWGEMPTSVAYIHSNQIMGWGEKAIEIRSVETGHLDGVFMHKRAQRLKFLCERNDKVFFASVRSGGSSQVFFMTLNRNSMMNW
Sequence of Inhibitor of nuclear factor kappa-B kinase subunit beta (Homo sapiens) (O14920 whole entry): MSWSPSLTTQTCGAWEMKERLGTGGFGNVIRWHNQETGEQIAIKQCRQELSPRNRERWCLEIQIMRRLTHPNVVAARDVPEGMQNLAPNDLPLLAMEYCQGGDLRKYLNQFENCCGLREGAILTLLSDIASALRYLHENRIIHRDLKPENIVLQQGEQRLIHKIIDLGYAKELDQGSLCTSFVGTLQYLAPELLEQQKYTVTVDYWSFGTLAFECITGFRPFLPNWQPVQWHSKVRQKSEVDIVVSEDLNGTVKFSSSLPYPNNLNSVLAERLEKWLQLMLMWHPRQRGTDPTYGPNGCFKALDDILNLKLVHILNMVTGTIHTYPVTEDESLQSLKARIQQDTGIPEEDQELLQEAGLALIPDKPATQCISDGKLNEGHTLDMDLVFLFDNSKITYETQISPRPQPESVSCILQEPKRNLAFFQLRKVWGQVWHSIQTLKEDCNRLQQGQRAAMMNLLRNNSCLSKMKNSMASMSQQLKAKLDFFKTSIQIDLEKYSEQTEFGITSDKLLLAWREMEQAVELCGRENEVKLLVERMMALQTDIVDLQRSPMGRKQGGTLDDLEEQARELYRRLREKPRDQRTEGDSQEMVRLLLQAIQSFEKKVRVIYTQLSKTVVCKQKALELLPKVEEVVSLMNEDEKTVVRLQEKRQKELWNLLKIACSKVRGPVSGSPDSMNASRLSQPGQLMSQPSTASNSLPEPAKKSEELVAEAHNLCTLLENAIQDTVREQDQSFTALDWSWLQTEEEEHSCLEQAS
Sequence of Death-associated protein kinase 1 (Homo sapiens) (P53355 whole entry, looked up): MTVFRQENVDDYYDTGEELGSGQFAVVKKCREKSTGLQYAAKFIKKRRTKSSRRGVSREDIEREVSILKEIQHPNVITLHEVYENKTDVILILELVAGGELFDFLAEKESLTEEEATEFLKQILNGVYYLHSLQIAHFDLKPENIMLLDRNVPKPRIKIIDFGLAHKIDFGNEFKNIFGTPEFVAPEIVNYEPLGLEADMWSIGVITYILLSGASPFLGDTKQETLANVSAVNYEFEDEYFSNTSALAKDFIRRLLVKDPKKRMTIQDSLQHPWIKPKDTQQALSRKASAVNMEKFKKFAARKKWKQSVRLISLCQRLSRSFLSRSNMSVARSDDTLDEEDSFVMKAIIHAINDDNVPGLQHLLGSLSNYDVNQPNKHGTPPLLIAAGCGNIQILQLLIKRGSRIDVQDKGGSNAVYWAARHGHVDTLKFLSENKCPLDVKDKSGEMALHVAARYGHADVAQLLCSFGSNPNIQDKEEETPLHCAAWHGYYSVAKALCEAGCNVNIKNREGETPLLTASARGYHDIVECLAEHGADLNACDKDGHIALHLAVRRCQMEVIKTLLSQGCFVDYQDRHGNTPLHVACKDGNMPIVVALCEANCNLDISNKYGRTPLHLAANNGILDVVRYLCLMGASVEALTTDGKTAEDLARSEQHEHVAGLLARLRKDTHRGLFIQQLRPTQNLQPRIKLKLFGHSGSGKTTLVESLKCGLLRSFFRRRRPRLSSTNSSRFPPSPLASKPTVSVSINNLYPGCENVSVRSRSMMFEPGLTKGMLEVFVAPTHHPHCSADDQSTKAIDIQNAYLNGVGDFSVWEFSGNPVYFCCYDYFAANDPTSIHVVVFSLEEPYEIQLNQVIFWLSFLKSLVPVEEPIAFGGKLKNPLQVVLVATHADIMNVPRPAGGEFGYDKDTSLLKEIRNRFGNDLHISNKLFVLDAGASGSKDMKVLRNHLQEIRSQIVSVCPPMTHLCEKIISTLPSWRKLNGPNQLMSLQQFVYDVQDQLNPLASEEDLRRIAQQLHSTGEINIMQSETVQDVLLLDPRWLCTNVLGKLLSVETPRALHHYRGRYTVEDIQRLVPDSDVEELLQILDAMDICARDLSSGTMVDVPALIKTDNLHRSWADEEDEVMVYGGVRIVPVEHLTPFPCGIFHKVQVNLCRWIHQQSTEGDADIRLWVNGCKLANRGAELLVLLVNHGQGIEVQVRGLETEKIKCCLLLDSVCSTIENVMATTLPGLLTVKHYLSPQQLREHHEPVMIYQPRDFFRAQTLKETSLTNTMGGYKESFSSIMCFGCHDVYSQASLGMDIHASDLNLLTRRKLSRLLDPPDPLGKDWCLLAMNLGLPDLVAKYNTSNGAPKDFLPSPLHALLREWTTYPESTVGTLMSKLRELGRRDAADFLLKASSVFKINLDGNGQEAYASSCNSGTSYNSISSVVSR
Sequence of Serine/threonine-protein kinase Nek9 (Homo sapiens) (Q8TD19 whole entry): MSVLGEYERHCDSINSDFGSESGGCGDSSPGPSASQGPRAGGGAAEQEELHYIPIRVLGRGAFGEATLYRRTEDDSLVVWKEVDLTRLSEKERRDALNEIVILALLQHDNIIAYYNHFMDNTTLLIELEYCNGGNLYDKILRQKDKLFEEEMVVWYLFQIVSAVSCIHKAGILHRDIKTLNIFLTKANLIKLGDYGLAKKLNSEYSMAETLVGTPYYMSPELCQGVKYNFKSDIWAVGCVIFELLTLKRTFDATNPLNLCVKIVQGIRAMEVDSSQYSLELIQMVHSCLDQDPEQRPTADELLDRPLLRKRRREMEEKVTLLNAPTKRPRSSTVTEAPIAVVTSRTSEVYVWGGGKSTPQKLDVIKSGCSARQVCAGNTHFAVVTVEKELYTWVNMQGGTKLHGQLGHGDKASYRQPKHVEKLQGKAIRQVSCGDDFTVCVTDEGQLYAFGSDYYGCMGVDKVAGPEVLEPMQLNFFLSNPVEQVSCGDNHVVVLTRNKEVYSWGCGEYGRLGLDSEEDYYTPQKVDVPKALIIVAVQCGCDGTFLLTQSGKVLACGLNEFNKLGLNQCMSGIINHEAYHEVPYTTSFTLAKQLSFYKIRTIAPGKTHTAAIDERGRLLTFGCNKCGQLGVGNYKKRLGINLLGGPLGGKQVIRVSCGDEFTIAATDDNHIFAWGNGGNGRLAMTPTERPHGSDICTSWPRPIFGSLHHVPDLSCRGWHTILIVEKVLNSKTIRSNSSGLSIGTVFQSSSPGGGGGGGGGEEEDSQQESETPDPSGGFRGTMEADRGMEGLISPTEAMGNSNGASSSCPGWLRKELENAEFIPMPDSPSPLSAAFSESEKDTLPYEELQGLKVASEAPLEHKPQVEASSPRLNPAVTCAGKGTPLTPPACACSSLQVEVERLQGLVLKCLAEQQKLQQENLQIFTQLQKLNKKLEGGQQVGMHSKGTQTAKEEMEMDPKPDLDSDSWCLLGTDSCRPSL
Sequence of Tyrosine-protein kinase HCK (Homo sapiens) (P08631 2-526 limits assumed): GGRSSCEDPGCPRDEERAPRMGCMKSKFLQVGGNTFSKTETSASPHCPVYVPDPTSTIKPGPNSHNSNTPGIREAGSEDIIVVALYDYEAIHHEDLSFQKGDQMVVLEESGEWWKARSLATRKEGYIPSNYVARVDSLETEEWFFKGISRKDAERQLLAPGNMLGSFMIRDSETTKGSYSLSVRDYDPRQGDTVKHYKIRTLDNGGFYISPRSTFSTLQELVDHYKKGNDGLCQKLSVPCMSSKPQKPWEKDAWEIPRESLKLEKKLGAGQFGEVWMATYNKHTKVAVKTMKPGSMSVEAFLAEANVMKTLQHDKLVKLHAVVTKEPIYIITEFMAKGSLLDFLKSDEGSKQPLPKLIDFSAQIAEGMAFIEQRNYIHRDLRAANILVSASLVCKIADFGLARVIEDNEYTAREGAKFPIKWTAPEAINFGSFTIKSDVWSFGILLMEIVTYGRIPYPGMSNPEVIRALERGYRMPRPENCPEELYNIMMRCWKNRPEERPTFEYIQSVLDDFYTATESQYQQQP

CC(=O)C1=C(C)N(c2cccc(C(F)(F)F)c2)C(=O)N[C@@H]1c1ccc(C#N)nc1 [BAY-678]
inactive: [1] 100% | [2] 100% | [3] 100% | [4] 93.8% | [5] 100% | [6] 100% | [7] 100% | [8] 87.7% | [9] 100% | [10] 100% | [11] 85.1% | [12] 100% | [13] 100% | [14] 52.8% | [15] 90.8%
